Measurements as given in patent US7445802B2, “Site-specific in situ generation of allicin using a targeted alliinase delivery system for the treatment of cancers, tumors, infectious diseases and other allicin-sensitive diseases” (Yeda Research and Development Co. Ltd, priority 2000, dated 2008).

Columns and labels:
[1] = background statement; cited from earlier work
CB-2 cells [2] = experiment: [3H]-thymidine incorporation (cell proliferation) in CB-2 cells; type: cell-based, Chinese hamster; conditions: allicin 0-54 μM, 16 h
Procedure: (§1) The following cell lines were used: N87 human gastric tumor cell line expressing the ErbB-2 receptors (described by Park et al, 1990); CB-2 cell line, generated by transfection of Chinese hamster ovary (CHO) cells with mammalian expression vectors that direct expression of ErbB-2 (Tzahar et al, 1996); and 32D cell line known to be devoid of the ErbB-2 receptors (described by Pinkas-Kramarski, 1996).
[Methyl-^3H]thymidine incorporation (Amersham Pharmacia Biotech, UK) into DNA was measured in 96-well plates. Cells (1,000-20,000 cells/well) were grown 6 h after seeding at 37° C. Cells were treated with conjugates for 1 hour and then 3×washed with medium. […] Cells were harvested after 16 hours incubation at 37° C.
Different concentrations of pure allicin were applied to tissue cultured […] CB-2 cancer cells for quantitative determination of the effective concentration. Thus, CB-2 cells were cultured in 96-well plate (2000 cells/well) for 6-16 h at 37° C. Pure allicin was added (10 μl/well) from pre-diluted allicin solutions in PBS to final concentrations of 0-54 μM (0-9 μg/ml). [^3H]-Thymidine diluted with medium was added to the cell culture (0.8 μCi/well). Cells were harvested after incubation for 16 h at 37° C. and the level of incorporated [^3H]-thymidine was measured to determine the extent of cell proliferation. […]

CB-2 cells [3] = experiment: Trypan blue viability of CB-2 cells; type: cell-based
Procedure: as §1
(§2) Viability of living cells was done after staining with Trypan Blue (0.025%) for 10 minutes.
(§3) Cell cultures of N87 (20,000 cells/well) were grown in 96-well plates and 32D cells were grown in suspension in 12-well plates (200,000 cells/ml). Cells were treated with: none, mAb ErbB-2 or mAb-ErbB-2-alliinase conjugate (total protein 2 μg/20,000 cells) for 1 hour at 37° C.

N87 cancer cells = experiment: Trypan blue viability of N87 cells; type: cell-based; conditions: alliin only, mAb ±alliin, or conjugate without alliin
Procedure: as §1, §2, §3

N-87 tumors = experiment: In vivo assay of antitumor effects (tumor growth) in nude mice injected with N-87 cells; conditions: alliin alone i.p., control mice
Procedure: N-87 cultured cells (3-5×10^6) were injected subcutaneously into the back of the mice. One to 5 days later, groups of 6 to 8 mice received either none or mAb-alliinase conjugate by intravenous injection (20 μg mAb/mouse). Conjugates were injected with 3-4 days intervals.
All mice were supplemented with Pyridoxine (vitamin B6) in the drinking water (100 mg/L). […] Tumor size was measured every second day.
All the animal groups were injected with N-87 cells 1-5 days before any treatment. • Group 1. […] Mice were treated with mAb-alliinase conjugates and alliin was administered regularly as described below.
MAb-alliinase conjugate was injected I.V. every 3-4 days. Mice were treated ×5 with the conjugate (20 μg/mouse) in. 3-4 day intervals. Total amount of mAb in the conjugate/mouse was 0.1 mg.

Compound	lifetime after being mixed with blood [1]	[3H]-thymidine incorporation (DNA synthesis) (CB-2 cells [2])	lethal concentration (CB-2 cells [3]; Trypan blue staining, CB-2 cells)	cell damage (Trypan blue) (N87 cancer cells)	tumor size (N-87 tumors)	cell damage (Trypan blue) (CB-2 cells [3]; CB-2, alliin only, mAb ±alliin, or conjugate without alliin)
C=CCS[S+]([O-])CC=C (stereo not drawn) [allicin, thio-2-propene-1-sulfinic acid S-allyl ester]	disappears within a few minutes	inhibits DNA synthesis	about 20 μM			
S-allyl-L-cysteine sulfoxide [alliin]				not damaged	no effect on the tumor size	not damaged
